{"source": "patent US6448287B1", "about": "(priority 1999, dated 2002)", "key": {"B16 melanoma": {"tested_on": "B16 melanoma", "assay": "Murine tumor model: B16 melanoma in C57 mice", "type": "in vivo", "description": "C57 mice were divided into groups of twenty and inoculated by B16 melanoma cells subcutaneously. After forty-eight hours, treatments were administered once every other day for a five week period by subcutaneous injection near the tumor site. Tumor size was measured on days ten, seventeen, and twenty-four of treatment. […]"}, "[1]": {"tested_on": "SW620 hollow fiber tumors", "quoted_text": "(§3) SW620 hollow fiber solid tumors were grown as previously described. […] SW620 colon carcinoma cells were prepared in cell culture medium at a concentration of 10^7 cells/ml and injected into the hollow fibers. The fibers were then heat sealed at roughly 2 cm intervals to trap the cells inside them. SW620 hollow fibers were then cultured in Petri dishes for three days. After three days, the hollow fibers are transferred to stirred medium either by moving them to spinner flasks containing 50 ml cell culture medium stirred at 150 rpm by a magnetic stirrer or by transferring them to six-well plates placed on an orbital shaker at 150 rpm. Cell culture medium was replenished on days three and six. […] After one or two days incubation on an orbital shaker, the hollow fiber tumors were rinsed and the cells were extruded out of the fibers with trypsin. The cylindrical tumor cell mass was exposed to trypsin while pipetting up and down to form a single cell suspension. Cell culture medium was then added to stop trypsin action. Surviving fractions were determined as previously described. Briefly, cells were transferred to ninety-six-well plates at a concentration of 5000 cells per well and incubated for six days. The surviving cell population was then measured using the SRB colorimetric assay. Surviving fraction was expressed as the ratio of the SRB staining at a given dose to that for cells from untreated hollow fiber tumors.\n(§4) The surviving fractions without ascorbate (denoted SFO) were analyzed along with the doses of ascorbate required to reduce the surviving fraction to half the SFO value, denoted LC50. Standard deviations for SFO and LC50 values were analyzed by the curve-fitting program KalediaGraph (Synergy Software).\n(§5) Data from three replicate experiments were pooled. The doses of ascorbate required to reduce the surviving fraction to half the control value were denoted as LC50. Standard deviations on LC50 values were estimated by the curve-fitting program kaleidaGraph (Synergy Software)."}, "[2]": {"tested_on": "Mia PaCa (Pancreatic Carcinoma)", "assay": "Toxicity test in cell monolayers, Mia PaCa", "type": "cell-based", "conditions": "Homo sapiens, MIA PaCa-2, 96 h, lipoic acid as sodium salt", "description": "(§1) In solid tumors, proliferating cells are sometimes more sensitive to treatment than quiescent, non-proliferating cells. To investigate this in cell monolayers, we used sparse plating densities (6K/well in a 96 well plate) to allow cell proliferation and confluent densities (24K/well in a 96 well plate) to simulate quiescent cells. Cells were plated in 96 well plates at sparse or confluent densities and then incubated four days in growth medium supplemented with various doses of antioxidants. After incubation, cell numbers were determined by standard […] techniques. Data were analyzed by scaling the cell number at any given antioxidant dose to that of the control and fitting the dose-response data to a sigmoid curve. Values of LC50, the dose required to reduce cell number by fifty percent relative to untreated controls, were computed from the sigmoid data fit."}, "[3]": {"assay": "Phase one clinical trial of continuous ascorbate infusions (safety)", "conditions": "doses up to 50 g/day", "description": "(§2) A person with diagnosed metastatic prostate cancer was infused intravenously with […] sodium ascorbate in sterile water over an eighty minute period. Blood samples were taken at regular intervals over a twenty-four hour period, frozen, and then analyzed for ascorbate content using a colorimetric assay. The ascorbate plasma concentration was analyzed in a prostate cancer patient given a 60 gram intravenous infusion of sodium ascorbate over an 80 minute period. […] The plasma volume Vp, was fixed at 30 dl. […] Predicted plasma ascorbate levels from a two compartment, four parameter pharmacokinetic model of ascorbate transport and clearance in blood. […] Infusion is modeled as continuous. Parameter values for the compartmental model are as follows: KX=0.124 min^−1, K1=0.124 min^−1, K2=0.038 min^−1. The plasma volume Vp, was fixed at 30 dl. A phase one clinical trial is currently under way to assess the safety of continuous ascorbate infusions, and is currently near completion."}, "[4]": {"tested_on": "SW620 hollow fiber tumors", "conditions": "hollow fiber solid tumor model, background statement; cited from earlier work"}, "SK-MEL (Melanoma)": {"tested_on": "SK-MEL (Melanoma)", "assay": "Toxicity test in cell monolayers, SK-MEL", "type": "cell-based", "conditions": "Homo sapiens, 96 h, lipoic acid as sodium salt", "description": "as §1"}, "[5]": {"assay": "Toxicity test in cell monolayers, ECV-304", "type": "cell-based", "conditions": "human, ECV-304 endothelial cell monolayer; read-out: LC50", "description": "as §1"}, "[6]": {"tested_on": "SW620 hollow fiber tumors", "assay": "cells", "conditions": "Homo sapiens, SW-620, read-out: ascorbate LC50 (dose reducing surviving fraction to half the control value)", "quoted_text": "as §3, §4, §5"}, "MCF-7 (Breast Carcinoma)": {"tested_on": "MCF-7 (Breast Carcinoma)", "assay": "Toxicity test in cell monolayers, MCF-7", "type": "cell-based", "conditions": "Homo sapiens, MCF7, 96 h, lipoic acid as sodium salt", "description": "as §1"}, "[7]": {"conditions": "male, human, in vivo, iv", "description": "as §2"}, "[8]": {"tested_on": "SW620 (Colon Adenocarcinoma)", "assay": "Toxicity test in cell monolayers, SW620", "type": "cell-based", "conditions": "Homo sapiens, SW-620, 96 h, lipoic acid as sodium salt", "description": "as §1"}, "[9]": {"conditions": "humans, intravenous infusion, peak level; cited from earlier work"}}, "note": "Where two headings read alike, the source gives them in different places.", "data": [{"smiles": "O=C(O)CCCCC1CCSS1", "note": "(racemic) [Lipoic Acid, DL-α-Lipoic Acid (DL-6,8-Thioctic Acid)]", "values": [{"measurement": "Animal Survival (percent)", "setting": "B16 melanoma; day twenty-four, control 70%", "value": 90, "unit": "%"}, {"measurement": "Animal Survival (survivors/group)", "setting": "B16 melanoma; day twenty-four, groups of twenty, control 14/20", "value": "18/20"}, {"measurement": "tumor size compared with the control group", "setting": "B16 melanoma; measured on days ten, seventeen and twenty-four of treatment", "value": "significantly smaller"}, {"measurement": "toxic effect of lipoic acid itself (surviving fraction without ascorbate, SFO)", "setting": "[1]; lipoic acid 5 mg/dl or 20 mg/dl, 48 hours", "value": "exhibited a toxic effect"}]}, {"smiles": "O=C1O[C@H]([C@@H](O)CO)C(O)=C1O", "note": "[Ascorbate, ascorbic acid]", "values": [{"measurement": "CC50", "setting": "[2]; read-out: LC50, Mia PaCa, confluent density (24K/well), four days incubation", "value": "3080 ± 330", "unit": "µg/mL"}, {"measurement": "CC50", "setting": "[2]; read-out: LC50, Mia PaCa, sparse density (6K/well), four days incubation", "value": "530 ± 60", "unit": "µg/mL"}, {"measurement": "safety of continuous ascorbate infusions", "setting": "[3]", "value": "found safe"}, {"measurement": "surviving fraction", "setting": "[1]; 52 mg/dL ascorbate for forty-eight hours, based on the data in EXAMPLE 2", "value": "greater than ninety percent"}, {"measurement": "ascorbate concentration that may be required to effectively treat tumors", "setting": "[4]", "value": "> 500", "unit": "mg/dL"}, {"measurement": "CC50", "setting": "SK-MEL (Melanoma); read-out: LC50, SK-MEL, confluent density (24K/well), four days incubation", "value": "780 ± 160", "unit": "µg/mL"}, {"measurement": "CC50", "setting": "SK-MEL (Melanoma); read-out: LC50, SK-MEL, sparse density (6K/well), four days incubation", "value": "150 ± 20", "unit": "µg/mL"}, {"measurement": "CC50 at 4 days", "setting": "[5]", "value": "1490 ± 160", "unit": "µg/mL"}, {"measurement": "CC50", "setting": "[6]", "value": 4900, "unit": "µg/mL"}, {"measurement": "CC50", "setting": "MCF-7 (Breast Carcinoma); read-out: LC50, MCF-7, confluent density (24K/well), four days incubation", "value": "230 ± 30", "unit": "µg/mL"}, {"measurement": "CC50", "setting": "MCF-7 (Breast Carcinoma); read-out: LC50, MCF-7, sparse density (6K/well), four days incubation", "value": "120 ± 10", "unit": "µg/mL"}, {"measurement": "K1", "setting": "[7]", "value": 0.124, "unit": "min⁻¹"}, {"measurement": "K2", "setting": "[7]", "value": 0.038, "unit": "min⁻¹"}, {"measurement": "KX", "setting": "[7]", "value": 0.124, "unit": "min⁻¹"}, {"measurement": "peak plasma value", "setting": "[7]", "value": 460, "unit": "mg/dL"}, {"measurement": "CC50", "setting": "[8]; read-out: LC50, SW620, confluent density (24K/well), four days incubation", "value": "390 ± 140", "unit": "µg/mL"}, {"measurement": "CC50", "setting": "[8]; read-out: LC50, SW620, sparse density (6K/well), four days incubation", "value": "300 ± 40", "unit": "µg/mL"}, {"measurement": "maximum plasma ascorbic acid concentration generally achievable", "setting": "[9]", "value": "roughly 500 mg/dL"}]}]}
